The values that follow are results of earlier work, collected in US4096336A, “5,6-Benzo analogues or prostaglandin E” (Miles Laboratories, Inc., priority 1977, dated 1978).

Like-named read-outs stand apart in the source and are kept apart here.

Series [1] has as its system growth hormone. Conditions: rats.
Series [2] concerns ovarian progesterone secretion. Conditions: sheep.
Series [3] concerns thyroid activity. The conditions noted are these: mice.
The test system of series [4] is adrenal glands. The conditions noted are these: hypophysectimized rats.
In series [5] the test system is smooth muscle of the vas deferens. Conditions: mammalian male reproductive system.
Series [6] has as its system motor pathways in the central nervous system.
Series [7] relates to adrenergic nervie endings. Conditions: guinea pig.
For series [8], the system named is gastric secretion. Conditions: dogs.
The subject of series [9] is tracheal smooth muscle. The conditions noted are these: in vitro preparations.
The test system of series [10] is blood platelets. The conditions noted are these: in vitro.
In series [11] the test system is female reproductive system.
For series [12], the system named is luteolytic factors. Conditions: variety of mammals.
The subject of series [13] is gastric secretion. Conditions: man.

On to `CCCCC[C@H](O)/C=C/[C@H]1[C@H](O)CC(=O)[C@@H]1CCCCCCC(=O)O` [PGE1, prostaglandin E1], for which the “release of growth hormone” value in series [1] was “increase release of growth hormone”. In addition, in series [2], the ovarian progesterone secretion result is listed as “inhibit ovarian progesterone secretion”. In addition, in series [3], the thyroid activity entry was “increase thyroid activity”. In addition, the “steriodogenesis in the adrenal glands” value in series [4] was “stimulate steriodogenesis in the adrenal glands”. The “effect on smooth muscle of the vas deferens” value in series [5] was “contracts the smooth muscle of the vas deferens”. Besides, in series [6], the “transmission in motor pathways” value is listed as “retards”. The “transmitter release from adrenergic nerve endings” value in series [7] is on record as “inhibit transmitter release”. Moreover, the gastric secretion entry in [8] is listed as “inhibit gastric secretion”. In addition, the “effect on tracheal smooth muscle” value in [9] is given as “relax”. Further, the thrombogenesis entry in series [10] is on record as “inhibits thrombogenesis in vitro”.
As for `CCCCC[C@H](O)/C=C/[C@H]1[C@H](O)CC(=O)[C@@H]1C/C=C\CCCC(=O)O` [PGE2], the “release of growth hormone” value in series [1] was “increase release of growth hormone”. Also, the thyroid activity result in series [3] was “increase thyroid activity”. Also, in series [4], the “steriodogenesis in the adrenal glands” value is given as “stimulate steriodogenesis in the adrenal glands”. In addition, the oxytocic effects entry in series [11] (inducing labor) is “exerts potent oxytocic effects in inducing labor”. For the same molecule, the “transmitter release from adrenergic nerve endings” value in series [7] is given as “inhibit transmitter release”. In addition, the gastric secretion result in [8] is listed as “inhibit gastric secretion”. Also, the “effect on tracheal smooth muscle” value in [9] was “relax”.
`CCCCC[C@H](O)/C=C/[C@@H]1[C@@H](CCCCCCC(=O)O)[C@@H](O)C[C@H]1O` [PGF1α]: the ovarian progesterone secretion entry in series [2] was “inhibit ovarian progesterone secretion”. Also, the luteolytic action entry in series [12] is on record as “act as luteolytic factors”. The thyroid activity result in series [3] was “increase thyroid activity”. Further, the “steriodogenesis in the adrenal glands” value in series [4] is “stimulate steriodogenesis in the adrenal glands”.
Regarding `CCCCC[C@H](O)/C=C/[C@@H]1[C@@H](CCCCCCC(=O)O)[C@H](O)C[C@H]1O` [PGF1β], the thyroid activity result in [3] was “increase thyroid activity”.
Turning to `CCCCC[C@H](O)/C=C/[C@@H]1[C@@H](C/C=C\CCCC(=O)O)[C@@H](O)C[C@H]1O` [PGF2α], the “induction of spontaneous abortions” value in series [11] (early pregnancy) is on record as “induces spontaneous abortions in early pregnancy”. The “effect on fertility / gestation” value in series [11] (female reproductive system) is reported as “has contragestational effects”. Moreover, in series [6], the “transmission in motor pathways” value is recorded as “facilitates transmission in motor pathways in the central nervous system”. The “effect on tracheal smooth muscle” value in series [9] is reported as “contracts the smooth muscle”.
In the case of `CCCCC[C@H](O)/C=C/[C@H]1C=CC(=O)[C@@H]1CCCCCCC(=O)O` [PGA1], the “synthesis of growth hormone” value in series [1] was “increased synthesis of that hormone”. Also, the gastric secretion result is listed as “inhibit gastric secretion” in series [8] and “exhibits similar activity in man” in series [13].
